These results are taken from patent US11932657B2, “Heterocyclic compound” (priority 2018, dated 2024).

The subject of assay [1] is immortalized megakaryocyte line (SeV2-MKCL). Nature of the assay: Platelet production: static culturing of immortalized megakaryocyte line. Type of assay: cell-based. The following applies: compound final concentration 0.1 μM, static culturing 6 to 7 days, control (DMSO) set to 1; platelets = CD41, CD42b and CD42a-positive cells. The essentials:
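SeV2-MKCL cells, washed free of doxycycline to stop forced expression, seeded at 1×10^5 cells/mL in IMDM-based medium with compound (final 0.1 μM) or DMSO, static culture 6–7 days, 37° C., 5% CO2. CD41/CD42a/CD42b-positive platelets counted by bead-corrected flow cytometry; platelets per megakaryocyte expressed as fold over DMSO control.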

The target of assay [2] is T1, aryl hydrocarbon receptor (AhR) (Homo sapiens, UniProt P35869).
T1 construct: DRE-Luc HepG2 cells subcultured in a 225 cm^2 flask; endogenous in cells; host or cells: HepG2 (ATCC), stably transfected with the reporter hCYP1A1/pGL4.27 (DRE-Luc HepG2)
T1 sequence (P35869 11-848): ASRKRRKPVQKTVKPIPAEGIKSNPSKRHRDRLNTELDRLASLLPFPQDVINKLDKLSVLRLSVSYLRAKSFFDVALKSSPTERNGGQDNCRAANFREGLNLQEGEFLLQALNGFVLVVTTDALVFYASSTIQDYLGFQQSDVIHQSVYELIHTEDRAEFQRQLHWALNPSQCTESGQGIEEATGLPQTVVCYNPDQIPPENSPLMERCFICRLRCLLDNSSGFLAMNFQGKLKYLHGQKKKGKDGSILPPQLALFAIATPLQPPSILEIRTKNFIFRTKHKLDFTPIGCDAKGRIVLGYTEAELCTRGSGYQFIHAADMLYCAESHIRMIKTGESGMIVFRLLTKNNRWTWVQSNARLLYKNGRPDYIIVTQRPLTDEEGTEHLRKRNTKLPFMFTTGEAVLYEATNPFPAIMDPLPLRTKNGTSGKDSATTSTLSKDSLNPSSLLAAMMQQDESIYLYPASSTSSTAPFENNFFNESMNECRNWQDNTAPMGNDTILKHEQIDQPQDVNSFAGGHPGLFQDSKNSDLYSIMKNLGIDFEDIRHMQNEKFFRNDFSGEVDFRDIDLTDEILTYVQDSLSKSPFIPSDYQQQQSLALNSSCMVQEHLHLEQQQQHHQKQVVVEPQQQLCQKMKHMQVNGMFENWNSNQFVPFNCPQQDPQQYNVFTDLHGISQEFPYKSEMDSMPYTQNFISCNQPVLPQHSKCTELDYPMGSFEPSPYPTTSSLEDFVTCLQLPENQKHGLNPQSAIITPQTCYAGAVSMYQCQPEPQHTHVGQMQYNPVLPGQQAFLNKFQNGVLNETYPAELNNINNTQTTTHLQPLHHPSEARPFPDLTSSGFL
Nature of the assay: AhR reporter gene assay (aryl hydrocarbon receptor antagonist activity, DRE-Luc HepG2 cells, TCDD-stimulated luciferase). It counts as cell-based. The essentials:
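HepG2 cells stably carrying a human CYP1A1 promoter/DRE-driven luciferase reporter were pretreated with compound for 24 h at 37°C. TCDD (5×10^−10 M in the added solution) was then added for a further 24 h. Firefly luciferase luminescence was read as the measure of antagonism.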
Background: A reporter such as luciferase makes a cellular process visible.

As for `CC1(C)COc2nc3c(NCCc4ccc(O)c(-c5c(F)cccc5F)c4)nc(-c4cncc(F)c4)nc3n21` [Example 44], in assay [1], the “Static (vs veh): fold increase of platelet production efficiency (PLT/MK)” value (“Static (vs veh): fold increase” for short) came out at 3.4. The molecule also came in with an IC50 in assay [2] of 3.5 nM.
For the molecule `CC1(C)COc2nc3c(NCCc4ccc(O)c(-c5cccc(F)c5F)c4)nc(-c4cncc(F)c4)nc3n21` [Example 11], the “Static (vs veh): fold increase” value in assay [1] is 8.5. The same molecule came in with an IC50 in assay [2] of 6.4 nM.
As to `CC1(C)COc2nc3c(NCCc4ccc(O)c(-c5ccccc5)c4)nc(-c4cncc(C#N)c4)nc3n21` [Example 46, 5-[4-[2-(4-hydroxy-3-phenylphenyl)ethylamino]-8,8-dimethyl-7H-purino[8,9-b][1,3]oxazol-2-yl]pyridine-3-carbonitrile], in assay [1], the “Static (vs veh): fold increase” value worked out at 5.0. Besides, the IC50 in assay [2] stood at 9.9 nM.
Regarding `Cc1cncc(-c2nc(NCCc3ccc(O)c(-c4ccccc4)c3)c3nc4n(c3n2)C(C)(C)CO4)c1` [Example 22], the “Static (vs veh): fold increase” value in assay [1] was determined as 7.3. For the same molecule, the IC50 in assay [2] came to 9.8 nM.
With `C[C@@H]1C[S+]([O-])c2nc3c(NCCc4c[nH]c5ccccc45)nc(-c4cncc(F)c4)nc3n21` (some centres unmarked) [Example 108], the “Static (vs veh): fold increase” value in assay [1] is 6.6. For the same molecule, the IC50 in assay [2] was determined as 4.1 nM.
As to `CC1(C)COc2nc3c(NCCc4c[nH]c5ccccc45)nc(-c4cccc(F)c4)nc3n21` [Example 85], the “Static (vs veh): fold increase” value in assay [1] was determined as 6.1. This molecule returned an IC50 in assay [2] of 27 nM.
As for `Cc1cncc(-c2nc(NCCc3ccc(O)c(-c4cccc(F)c4)c3)c3nc4n(c3n2)C(C)(C)CO4)c1` [Example 24], the “Static (vs veh): fold increase” value in assay [1] came to 7.7. In addition, the midpoint of inhibition in assay [2], the IC50, lay at 3.9 nM.
For the molecule `CC1(C)COc2nc3c(NCCc4ccc(O)c(-c5ccc(F)cc5)c4)nc(-c4cncc(F)c4)nc3n21` [Example 4], in assay [1], the “Static (vs veh): fold increase” value is listed as 6.7. In addition, the IC50 in assay [2] amounted to 5 nM.
Taken in the same sequence, the figures for `CC1(C)COc2nc3c(NCCc4ccc(O)c(-c5cccc(F)c5)c4)nc(-c4cncc(F)c4)nc3n21` [Example 3] were 6.8 and 2.9 nM.
Consider `CC1(C)COc2nc3c(NCCc4c[nH]c5ccccc45)nc(-c4ccc5ncnn5c4)nc3n21` [Example 111], for which the “Static (vs veh): fold increase” value in assay [1] turned out to be 7.0. In assay [2], this molecule registered an IC50 of 40 nM.

A word on the IC50: it is the concentration needed to halve the response being measured. The low end stands for higher potency, the high end for lower potency.
